Test results as given in patent publication US9388175B2, “2-aniline-4-aryl substituted thiazole derivatives” (Janssen Pharmaceutica N.V., priority 2005, dated 2016).
Structures can show the parent of a compound that is named as a salt.

biological target: T1, hα7-wt nAChR stably expressed in the GH4C1 cell line (Homo sapiens, UniProt P36544); assay: Ca2+ flux imaging (FLIPR) of PAM activity with choline as agonist; format: cell-based; details: efficacy relative to 100 μM choline alone (defined as 1); peak fluorescence, fluo-4AM; compounds tested 0.1 μM to 30 μM, efficacy criterion at 10 μM
T1 construct: expressed in transfected cells
Description: Stable expression in mammalian cells in general and rat GH4C1 cells in particular, of cDNA clones encoding the human α7 wild-type sequence (hα7-wt nAChR) and in which the coding region is placed downstream of a promoter results in the appearance of functional α7 nAChRs on the surface of the mammalian cells. This technique has provided a powerful means of assessing the function of α7 wild-type protein. Given the fact that the cation permeability of the α7 nicotinic receptor preferentially favours calcium, fluorescent imaging of Ca^2+ flux through the hα7-wt nAChR stably expressed in the GH4C1 cell line was used as a first means of assaying modulator activity of the compounds of the present invention.
a) Assay Buffer • Hanks buffered saline solution (HBSS, Invitrogen, Belgium), supplemented with 10 mM HEPES (Invitrogen, Belgium), CaCl2 to a final concentration of 5 mM, 0.1% Bovine serum albumin (Sigma-Aldrich NV, Belgium), 2.5 mM probenecid (Sigma-Aldrich NV, Belgium).
b) Calcium-Sensitive Dye—Fluo-4AM • Fluo-4AM (Molecular Probes, USA) was dissolved in DMSO containing 10% Pluronic acid (Molecular Probes, USA) to give a stock solution which was aliquoted and could be stored at −20° C. until later use. On the day of the experiment Fluo-4AM stock was defrosted and diluted in DMEM/F12 (Invitrogen, Belgium) containing 2.5 mM probenicid and 0.1% BSA to give a final concentration of 2 μM.
c) 96-well Plates • BD Biocoat poly-D-lysine 96-well black/clear bottom plates (BD Biosciences, Belgium)
d) Calcium Flux Measurement • A Fluorimetric Imaging Plate Reader (FLIPR, Molecular Devices Corporation, Sunnyvale, USA) was used to measure intracellular free-calcium flux signals
Monolayers of hα7-wt nAChR-expressing cells were grown in multi-well plates, in particular black-sided, transparent bottomed 96 well plates coated with poly-D-lysine for 24 hours prior to loading with a fluorescent calcium indicator, in a particular embodiment loading with fluo-3 or fluo-4AM for up to 90 minutes, in an even more particular embodiment loading with fluo-4AM for up to 90 minutes, and in a preferred embodiment loading with fluo-4AM for 60 minutes.
In a particular embodiment, the α7 nicotinic receptor agonist was choline, a more particular embodiment choline applied at a sub-maximal concentration of 100 μM.
A control response to choline was calculated on each plate from the difference in peak fluorescence in wells receiving either choline or assay buffer alone. Compounds of the present invention were tested at a concentration range from 0.1 μM to 30 μM.
The activity ranges are defined as follows; A denotes an activity range from 1.1 till 1.5, B denotes an activity range from 1.5 till 2.0, C denotes an activity range from 2.0 till 3.0, D denotes an activity range from 3.0 till 4.5 and E denotes an efficacy from at least 4.5.

T1 sequence (P36544 23-502): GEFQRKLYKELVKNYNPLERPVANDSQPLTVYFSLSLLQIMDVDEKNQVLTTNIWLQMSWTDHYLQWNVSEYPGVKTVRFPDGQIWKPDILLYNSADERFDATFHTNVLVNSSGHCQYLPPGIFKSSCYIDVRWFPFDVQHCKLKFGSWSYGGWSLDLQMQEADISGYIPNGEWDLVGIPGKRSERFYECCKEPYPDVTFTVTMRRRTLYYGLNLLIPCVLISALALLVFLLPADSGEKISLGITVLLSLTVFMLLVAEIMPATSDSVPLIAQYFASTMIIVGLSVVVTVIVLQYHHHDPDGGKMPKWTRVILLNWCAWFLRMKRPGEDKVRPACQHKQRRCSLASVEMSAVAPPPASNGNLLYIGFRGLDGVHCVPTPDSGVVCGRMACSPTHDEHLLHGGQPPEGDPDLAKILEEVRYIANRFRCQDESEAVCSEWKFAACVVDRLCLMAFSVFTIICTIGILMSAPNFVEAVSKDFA

Q: Which “Activity Range” value does the source give for NC(=O)Cc1sc(Nc2cccc(C(F)(F)F)c2)nc1-c1ccccc1 [Compound 1, 2-[4-Phenyl-2-(3-trifluoromethyl-phenylamino)-thiazol-5-yl]-acetamide] here?
A: C (C denotes an activity range from 2.0 till 3.0)

Q: Which “Activity Range” value does the source give for CNC(=O)Cc1sc(Nc2cc(Cl)ccc2Cl)nc1-c1ccncc1 [Compound 163] here?
A: E (E denotes an efficacy from at least 4.5)

Q: For Cc1cc(Nc2nc(-c3ccc(Cl)nc3)cs2)ccc1F [Compound 2], which “Activity Range” value is on record?
A: D (D denotes an activity range from 3.0 till 4.5)

Q: With O=C(NCc1sc(Nc2cccc(C(F)(F)F)c2)nc1-c1cccnc1)c1ccccc1 [Compound 164] as the compound, how does the “Activity Range” value read?
A: E (E denotes an efficacy from at least 4.5)

Q: For COCc1sc(Nc2cc(Cl)ccc2Cl)nc1-c1ccncc1 [Compound 136], which “Activity Range” value is on record?
A: E (E denotes an efficacy from at least 4.5)

Q: For COc1ccc(Nc2nc(-c3ccccc3)c(CO)s2)cc1 [Compound 127], which “Activity Range” value is on record?
A: E (E denotes an efficacy from at least 4.5)

Q: For CC(=O)NCc1sc(Nc2cccc(C(F)(F)F)c2)nc1-c1cccnc1 [Compound 4, N-[4-Pyridin-3-yl-2-(3-trifluoromethyl-phenylamino)-thiazol-5-ylmethyl]-acetamide], which “Activity Range” value is on record?
A: D (D denotes an activity range from 3.0 till 4.5)

Q: With COc1ccc(Nc2nc(-c3ccncc3)c(CO)s2)c(OC)c1 [Compound 123] as the compound, how does the “Activity Range” value read?
A: D (D denotes an activity range from 3.0 till 4.5)

Q: With CCOC(=O)c1sc(Nc2ccc(OC)cc2)nc1C1CC1 [Compound 146] as the compound, how does the “Activity Range” value read?
A: E (E denotes an efficacy from at least 4.5)

Q: Which “Activity Range” value does the source give for COc1ccc(-c2csc(Nc3cccc4[nH]ncc34)n2)c(OC)c1 [Compound 35] here?
A: C (C denotes an activity range from 2.0 till 3.0)

Q: For Cc1ccc(Nc2nc(-c3cccnc3)c(F)s2)cc1 [Compound 120], which “Activity Range” value is on record?
A: C (C denotes an activity range from 2.0 till 3.0)

Q: For FC(F)(F)c1cccc(Nc2nc(-c3cnc4ccccn34)cs2)c1 [Compound 71], which “Activity Range” value is on record?
A: B (B denotes an activity range from 1.5 till 2.0)

Q: Which “Activity Range” value does the source give for COc1ccc(Nc2nc(-c3cnc4ccccn34)cs2)cc1 [Compound 70] here?
A: D (D denotes an activity range from 3.0 till 4.5)

Q: For Cc1cc(Nc2nc(-c3cccnc3)c(F)s2)ccc1F [Compound 83], which “Activity Range” value is on record?
A: C (C denotes an activity range from 2.0 till 3.0)

Q: With Fc1cccc(-c2nc(Nc3cccc(C(F)(F)F)c3)sc2F)c1 [Compound 7] as the compound, how does the “Activity Range” value read?
A: C (C denotes an activity range from 2.0 till 3.0)

Q: With Cc1cccc(Nc2nc(-c3cccnc3)c(Cl)s2)c1 [Compound 94] as the compound, how does the “Activity Range” value read?
A: D (D denotes an activity range from 3.0 till 4.5)

Q: Which “Activity Range” value does the source give for Fc1ccc(Nc2nc(-c3cccnc3)c(F)s2)cc1C(F)(F)F [Compound 81] here?
A: C (C denotes an activity range from 2.0 till 3.0)

Q: For Cc1cccc(Nc2nc(-c3cnc4sccn34)cs2)c1 [Compound 59], which “Activity Range” value is on record?
A: B (B denotes an activity range from 1.5 till 2.0)

Q: Which “Activity Range” value does the source give for c1cn2c(-c3csc(Nc4ccc5c(c4)CCO5)n3)cnc2s1 [Compound 60] here?
A: B (B denotes an activity range from 1.5 till 2.0)

Q: Which “Activity Range” value does the source give for Cc1sc(Nc2ccc(C(F)(F)F)cc2)nc1-c1cnc2ccccn12 [Compound 85] here?
A: C (C denotes an activity range from 2.0 till 3.0)

Q: Which “Activity Range” value does the source give for Cc1sc(Nc2ccc(Br)cc2)nc1-c1cccnc1 [Compound 137] here?
A: D (D denotes an activity range from 3.0 till 4.5)

Q: With COc1ccc(Nc2nc(C(F)(F)F)c(CO)s2)cc1 [Compound 118] as the compound, how does the “Activity Range” value read?
A: E (E denotes an efficacy from at least 4.5)

Q: For FC(F)(F)c1cccc(Nc2nc(-c3cnc4ccccn34)cs2)c1 [Compound 56], which “Activity Range” value is on record?
A: C (C denotes an activity range from 2.0 till 3.0)

Q: Which “Activity Range” value does the source give for OCc1sc(Nc2ccc(F)c(C(F)(F)F)c2)nc1-c1cccnc1 [Compound 91] here?
A: C (C denotes an activity range from 2.0 till 3.0)

Q: Which “Activity Range” value does the source give for COC(=O)c1sc(Nc2cc(Cl)ccc2Cl)nc1C(C)C [Compound 149] here?
A: E (E denotes an efficacy from at least 4.5)

Q: With O=C(Nc1cccnc1)c1sc(Nc2ccc(F)cc2)nc1-c1ccccc1 [Compound 169, 5-Thiazolecarboxamide, 2-[(4-fluorophenyl)amino]-4-phenyl-N-3-pyridinyl-] as the compound, how does the “Activity Range” value read?
A: D (D denotes an activity range from 3.0 till 4.5)

Q: Which “Activity Range” value does the source give for COc1ccc(-c2csc(Nc3cc(F)ccc3C)n2)c(OC)c1 [Compound 40] here?
A: C (C denotes an activity range from 2.0 till 3.0)

Q: For Fc1cccc(-c2csc(Nc3ccc(F)c(C(F)(F)F)c3)n2)c1 [Compound 79], which “Activity Range” value is on record?
A: B (B denotes an activity range from 1.5 till 2.0)

Q: Which “Activity Range” value does the source give for CSc1cccc(Nc2nc(-c3cnc4ccccn34)cs2)c1 [Compound 52] here?
A: C (C denotes an activity range from 2.0 till 3.0)

Q: For CCCc1nc(Nc2cccc(C(F)(F)F)c2)sc1C(=O)OCC [Compound 155], which “Activity Range” value is on record?
A: E (E denotes an efficacy from at least 4.5)

Q: Which “Activity Range” value does the source give for CCOC(=O)c1sc(Nc2ccc(OC)cc2)nc1C(F)(F)F [Compound 154] here?
A: E (E denotes an efficacy from at least 4.5)

Q: Which “Activity Range” value does the source give for COc1cc(OC)c(Nc2nc(-c3ccc4c(c3)OCCO4)c(CC#N)s2)cc1Cl [int. 20] here?
A: E (E denotes an efficacy from at least 4.5)

Q: With Cc1cccc(Nc2nc(-c3cnc4ccccn34)c(F)s2)c1 [Compound 82] as the compound, how does the “Activity Range” value read?
A: B (B denotes an activity range from 1.5 till 2.0)

Q: For CCOC(=O)c1ccc(Nc2nc(-c3cccnc3)c(C)s2)cc1 [Compound 142], which “Activity Range” value is on record?
A: E (E denotes an efficacy from at least 4.5)

Q: For CCCc1nc(Nc2cccc(C(F)(F)F)c2)sc1CO [Compound 117], which “Activity Range” value is on record?
A: E (E denotes an efficacy from at least 4.5)

Q: With Fc1cccc(-c2nc(Nc3cccc(C(F)(F)F)c3)sc2Br)c1 [Compound 6] as the compound, how does the “Activity Range” value read?
A: C (C denotes an activity range from 2.0 till 3.0)

Q: For N#Cc1ccc(Nc2nc(-c3cnc4ccccn34)cs2)cc1 [Compound 69], which “Activity Range” value is on record?
A: D (D denotes an activity range from 3.0 till 4.5)

Q: For COc1ccc(OC)c(-c2csc(Nc3cccc4[nH]ncc34)n2)c1 [Compound 34], which “Activity Range” value is on record?
A: C (C denotes an activity range from 2.0 till 3.0)

Q: Which “Activity Range” value does the source give for COc1cc(OC)c(Nc2nc(-c3ccncc3)c(CC(=O)N3CCCC3)s2)cc1Cl [Compound 135] here?
A: E (E denotes an efficacy from at least 4.5)

Q: Which “Activity Range” value does the source give for Cc1sc(Nc2ccc(C(F)(F)F)cc2)nc1-c1cccnc1 [Compound 86] here?
A: D (D denotes an activity range from 3.0 till 4.5)

Q: Which “Activity Range” value does the source give for OCc1sc(Nc2ccc(F)c(C(F)(F)F)c2)nc1-c1ccncc1 [Compound 89] here?
A: E (E denotes an efficacy from at least 4.5)

Q: With COc1ccc(OC)c(-c2csc(Nc3cccc(Cl)c3Cl)n2)c1 [Compound 39] as the compound, how does the “Activity Range” value read?
A: C (C denotes an activity range from 2.0 till 3.0)

Q: For Clc1ccc(Nc2nc(-c3cnc4ccccn34)cs2)cc1 [Compound 53], which “Activity Range” value is on record?
A: D (D denotes an activity range from 3.0 till 4.5)

Q: Which “Activity Range” value does the source give for COc1ccc(-c2csc(Nc3ccccc3OC)n2)c(OC)c1 [Compound 38] here?
A: D (D denotes an activity range from 3.0 till 4.5)

Q: With CCOC(=O)c1sc(Nc2cc(Cl)ccc2Cl)nc1C1CC1 [Compound 152] as the compound, how does the “Activity Range” value read?
A: E (E denotes an efficacy from at least 4.5)

Q: For OCc1sc(Nc2ccc(Cl)cc2Cl)nc1-c1ccccc1 [Compound 3], which “Activity Range” value is on record?
A: D (D denotes an activity range from 3.0 till 4.5)

Q: Which “Activity Range” value does the source give for COc1cc(OC)c(Nc2nc(-c3ccc4c(c3)OCCO4)c(CC(=O)N3CCCC3)s2)cc1Cl [Compound 133] here?
A: E (E denotes an efficacy from at least 4.5)

Q: Which “Activity Range” value does the source give for CCOC(=O)c1sc(Nc2cc(Cl)ccc2Cl)nc1-c1ccccc1 [Compound 174, 5-Thiazolecarboxylic acid, 2-[(2,5-dichlorophenyl)amino]-4-phenyl-, ethyl ester] here?
A: E (E denotes an efficacy from at least 4.5)

Q: For COc1cc(OC)c(Nc2nc(-c3ccncc3)c(CO)s2)cc1Cl [int. 25], which “Activity Range” value is on record?
A: C (C denotes an activity range from 2.0 till 3.0)

Q: With COc1ccc(OC)c(-c2csc(Nc3ccc(Cl)cc3Cl)n2)c1 [Compound 36] as the compound, how does the “Activity Range” value read?
A: C (C denotes an activity range from 2.0 till 3.0)

tested on: not given; assay: not given; details: not given

Q: With NC(=O)Cc1sc(Nc2cccc(C(F)(F)F)c2)nc1-c1ccccc1 [Compound 1, 2-[4-Phenyl-2-(3-trifluoromethyl-phenylamino)-thiazol-5-yl]-acetamide] as the compound, how does the melting point read?
A: 186 to 187 °C

Q: For CNC(=O)Cc1sc(Nc2cc(Cl)ccc2Cl)nc1-c1ccncc1 [Compound 163], which melting point is on record?
A: 237.2 to 244 °C

Q: Which melting point does the source give for Cc1cc(Nc2nc(-c3ccc(Cl)nc3)cs2)ccc1F [Compound 2] here?
A: 175 °C

Q: Which melting point does the source give for O=C(NCc1sc(Nc2cccc(C(F)(F)F)c2)nc1-c1cccnc1)c1ccccc1 [Compound 164] here?
A: 215.5 to 218.9 °C

Q: Which melting point does the source give for Fc1ccc(Nc2nc(-c3cnc4ccccn34)cs2)cc1C(F)(F)F (as salt: HCl) [Compound 9] here?
A: 248 °C

Q: Which melting point does the source give for COCc1sc(Nc2cc(Cl)ccc2Cl)nc1-c1ccncc1 [Compound 136] here?
A: 205.3 to 205.8 °C
